The supplement of paper PMC8617591

Key:
[1] = test system: Mycobacterium tuberculosis Erdman (autoluminescent); experiment: AUC25, normalised area under dose response up to IC25 (fraction (0-1)); higher = more potent at low dose
Protocol: (§1)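 DiaMOND dose responses (10 doses, 1.5- or 2-fold spacing, equipotent around IC90) of autoluminescent M. tuberculosis Erdman in 8 in vitro models. Read-out is OD600, or luminescence for the intracellular (J774) and dormancy models, background-subtracted and normalised to untreated wells. A 3-parameter Hill fit gives Einf and AUC25 (area to IC25 normalised by IC25); GRinf comes from a Hill fit of the Hafner normalised growth rate. Biological replicates passing QC are averaged. Single drugs only.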

[2] = test system: Mycobacterium tuberculosis Erdman (autoluminescent); experiment: Einf, fitted maximum growth inhibition (fraction); higher = stronger maximal inhibition
Protocol: as §1

[3] = test system: Mycobacterium tuberculosis Erdman (autoluminescent); experiment: GRinf, maximum normalised growth rate inhibition (unitless (-1 to 1)); higher = less effect (negative = killing)
Protocol: as §1

O=[N+]([O-])c1cn2c(n1)OC[C@@H](OCc1ccc(OC(F)(F)F)cc1)C2 [pretomanid]
Details | AUC25, [1] | Einf, [2] | GRinf, [3]
in vitro model: acidic pH 5.7, time point: constant (~7 days, model-specific) | 0.109 | 0.891 | -0.472
in vitro model: acidic pH 5.7, time point: terminal (~4-5 doublings, model-specific) | 0.0605 | 0.983 | -0.294
in vitro model: intracellular J774, time point: constant = terminal | – | 1 | -0.539

Details | AUC25, [1] | Einf, [2] | GRinf, [3]
in vitro model: butyrate, time point: constant (~7 days, model-specific) | 0.0902 | 0.949 | -0.111
in vitro model: butyrate, time point: terminal (~4-5 doublings, model-specific) | 0.0573 | 0.98 | -0.114
in vitro model: cholesterol 0.05 mM, time point: constant (~7 days, model-specific) | 0.122 | 0.741 | -0.205
in vitro model: cholesterol 0.05 mM, time point: terminal (~4-5 doublings, model-specific) | 0.0841 | 0.927 | -0.0295
in vitro model: cholesterol-high 0.2 mM, time point: constant (~7 days, model-specific) | 0.0644 | 0.888 | -0.269
in vitro model: cholesterol-high 0.2 mM, time point: terminal (~4-5 doublings, model-specific) | 0.044 | 0.943 | -0.393
in vitro model: dormancy (butyrate + nitrate, low O2), time point: constant (~7 days, model-specific) | 0.0707 | 0.914 | 0.272
in vitro model: dormancy (butyrate + nitrate, low O2), time point: terminal (~4-5 doublings, model-specific) | 0.0458 | 0.994 | -0.0972
in vitro model: standard 7H9 glycerol, time point: constant = terminal | 0.0636 | 0.939 | -0.0451
in vitro model: valerate, time point: constant (~7 days, model-specific) | 0.136 | 0.948 | -0.0946
in vitro model: valerate, time point: terminal (~4-5 doublings, model-specific) | 0.0896 | 0.96 | -0.00421

COc1nc2ccc(Br)cc2cc1[C@@H](c1ccccc1)[C@@](O)(CCN(C)C)c1cccc2ccccc12 [bedaquiline]
Details | AUC25, [1] | Einf, [2] | GRinf, [3]
in vitro model: acidic pH 5.7, time point: constant (~7 days, model-specific) | 0.109 | 0.921 | -0.617
in vitro model: acidic pH 5.7, time point: terminal (~4-5 doublings, model-specific) | 0.0902 | 0.988 | -0.475
in vitro model: intracellular J774, time point: constant = terminal | – | 0.979 | -0.319

Details | AUC25, [1] | Einf, [2] | GRinf, [3]
in vitro model: butyrate, time point: constant (~7 days, model-specific) | 0.0777 | 0.964 | -0.167
in vitro model: butyrate, time point: terminal (~4-5 doublings, model-specific) | 0.0609 | 0.984 | -0.138
in vitro model: cholesterol 0.05 mM, time point: constant (~7 days, model-specific) | 0.0895 | 0.766 | -0.328
in vitro model: cholesterol 0.05 mM, time point: terminal (~4-5 doublings, model-specific) | 0.0718 | 0.946 | -0.335
in vitro model: cholesterol-high 0.2 mM, time point: constant (~7 days, model-specific) | 0.0559 | 0.975 | -0.613
in vitro model: cholesterol-high 0.2 mM, time point: terminal (~4-5 doublings, model-specific) | 0.0462 | 1 | -0.647
in vitro model: dormancy (butyrate + nitrate, low O2), time point: constant (~7 days, model-specific) | 0.0618 | 0.908 | 0.184
in vitro model: dormancy (butyrate + nitrate, low O2), time point: terminal (~4-5 doublings, model-specific) | 0.0799 | 0.979 | -0.0503
in vitro model: standard 7H9 glycerol, time point: constant = terminal | 0.0758 | 0.97 | -0.118
in vitro model: valerate, time point: constant (~7 days, model-specific) | 0.0789 | 0.92 | -0.142
in vitro model: valerate, time point: terminal (~4-5 doublings, model-specific) | 0.0549 | 0.963 | -0.0955
